Test results as given in patent publication US6723523B2, “System and method for investigating the effect of chemical and other factors on cell movement” (University of Connecticut, priority 2000, dated 2004).

Experiments:
[1] = test system: Dictyostelium cells; experiment: Inhibition of chemotactic response to folic acid by cisplatin, ECIS/taxis; format: cell-based, Dictyostelium discoidium; conditions: increasing concentrations of cisplatin, folic acid as chemoattractant
Procedure: These chambers were filled with 300 μL of a 0.5% solution of melted agarose prepared as described above. The thickness of the agarose layer is 4 mm. […]

[2] = test system: Dictyostelium discoidium strain NC4A2 cells; experiment: ECIS/taxis under-agarose chemotaxis assay, cell movement in a folate gradient; format: cell-based
Procedure: Dictyostelium discoidium strain NC4A2 is an axenic cell line derived from the wild type NC4 line. The myosin II heavy chain mutant (HK323) was generated by homologous recombination to delete the coding portion of the gene in the NC4A2 cell line. Cells were maintained in HL5 media in 100 mm petri dishes with media changes every three days. Cells to be used for experimental procedures were harvested at mid-log phase. Cells were centrifuged at 200×g for 5 minutes at room temperature, re-suspended in fresh media and counted with a Z2 particle counter (Coulter, Miami, Fla.). Chambers were loaded with 10^6 cells per well.
Chemotaxis assays were adapted from the under-agarose chemotaxis method. Briefly, a 0.5% solution of GTG agarose (FMC Corporation, Rockland, Me.) was prepared in 1×SM media (10 g Difco Bacto-Peptone, 10 g glucose, 1 g yeast extract, 1.9 g KH2PO4, 0.6 g K2HPO4, 0.43 g MgSO4 per liter, pH 6.5). For chemokinetic assays, 2×SM agarose media was premixed with an equal volume of 2× folic acid and then added to the chamber to harden.
The chemoattractant folic acid (Research Organics, Inc. Cleveland, Ohio) stock at 100 mM was prepared by dissolving 0.44 g folate in 220 ul of 10 M NaOH. The final volume was adjusted to 10 ml with distilled water. The solution was filter sterilized through a 0.2 micron filter, aliquoted and stored frozen at −20° C. in the dark. The folate solution was adjusted to the appropriate concentration and added to wells one hour prior to the addition of cells to allow for establishment of the chemotactic gradient. […] Following this incubation, the cells were washed three times in PDF and then re-suspended in PDF before placement in the cell wells of ECIS/taxis chambers.
The commercially available ECIS electrode configuration (Applied Biophysics, Inc., Troy, N.Y.) consists of 8 chambers per array, each with a large electrode and a small target electrode (see panel A of FIG. 2). These chambers were filled with 300 μL of a 0.5% solution of melted agarose prepared as described above. […]
The chemoattractant was then loaded into one well in appropriate chambers and the gradient was allowed to form for one hour. […] Impedance to this current flow was measured and a resistance value was calculated according to established protocols. […] In the results presented below, the data is presented as normalized resistance, which is calculated as a fraction of the initial resistance of the chamber at the start of the experiment.
A gradient was established by loading 1 mM folate into the chemoattractant well of a modified ECIS chamber, and one hour later Dictyostelium cells were placed in the adjacent cell well. […] In order to visualize the arrival of the cells at the target electrode, the cells exposed to folate were continuously monitored by video microscopy. […]

Compound	effect on time of arrival of cells at the electrode [1]	absolute number of cells that arrive at the electrode versus folate dose ([2]; folate 0.16 to 1 mM in chemoattractant well)	time of arrival of cells at the target electrode after placement of cells in the cell well ([2]; gradient formed by 1 mM folate)	average speed of cell movement to the target electrode ([2]; gradient from 1 mM folate)	time of first small resistance peak (initial cell spreading on the target electrode) ([2]; gradient from 1 mM folate in chemoattractant well, loaded 1 h before cells, wells 2 mm from electrode) [h]
N.N.[Cl][Pt][Cl] [cisplatin, Cisplatin]	delayed in a manner proportional to the dose of cisplatin				
Nc1nc2ncc(CNc3ccc(C(=O)N[C@@H](CCC(=O)O)C(=O)O)cc3)nc2c(=O)[nH]1 [folate, folic acid]		absolute number of cells that arrive decreases as the dose of folate used to establish the gradient decreases	approximately 3.5 hours	approximately 10 μm/min	3.75
